# Like-named read-outs stand apart in the source and are kept apart here.
# Key:
# [1] = molecular target: T1, lipoxygenase from rabbit reticulocytes (Oryctolagus cuniculus, UniProt P12530); experiment: Inhibition of the activity of lipoxygenase from rabbit reticulocytes (oxygen consumption, Clark electrode); format: biochemical; details: for IC84: read-out: I84
# T1 construct: The lipoxygenase from rabbit reticulocytes is obtained in electrophoretically and immunologically pure form; from tissue; host or cells: rabbit reticulocytes
# T1 sequence (P12530 1-663): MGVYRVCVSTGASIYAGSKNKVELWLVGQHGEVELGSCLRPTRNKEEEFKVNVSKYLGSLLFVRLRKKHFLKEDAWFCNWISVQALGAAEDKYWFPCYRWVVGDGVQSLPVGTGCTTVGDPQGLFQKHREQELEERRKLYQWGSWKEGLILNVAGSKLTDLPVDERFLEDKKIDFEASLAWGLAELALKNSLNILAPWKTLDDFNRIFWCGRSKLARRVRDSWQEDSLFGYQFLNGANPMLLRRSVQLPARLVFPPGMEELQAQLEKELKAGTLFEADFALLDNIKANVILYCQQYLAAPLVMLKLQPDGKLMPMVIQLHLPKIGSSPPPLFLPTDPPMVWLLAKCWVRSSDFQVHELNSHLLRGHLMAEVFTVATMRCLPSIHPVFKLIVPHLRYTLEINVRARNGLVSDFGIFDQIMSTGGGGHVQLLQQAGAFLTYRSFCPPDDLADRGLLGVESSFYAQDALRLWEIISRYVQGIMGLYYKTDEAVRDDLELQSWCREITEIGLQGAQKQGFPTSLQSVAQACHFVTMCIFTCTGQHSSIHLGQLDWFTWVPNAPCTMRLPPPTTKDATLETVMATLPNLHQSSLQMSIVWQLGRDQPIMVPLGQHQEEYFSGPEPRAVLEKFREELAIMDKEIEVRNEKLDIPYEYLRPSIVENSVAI
# Procedure: The lipoxygenase from rabbit reticulocytes was obtained in electrophoretically and immunologically pure form according to a technique known from the literature (S. M. Rapoport et al. Methods in Enzymology 71, 430 (1981)). The determination of lipoxygenase activity follows at 25° C. through the polarographic measurement of the oxygen consumption by means of Clark Electrode in a standardized system.
# Through variation of the substance concentrations, the titration curves of the inhibition and therefrom the inhibition concentrations (I-value) of the compounds can be determined.
# The testing of compounds for antiasthmatic, antiallergenic, inflammation-inhibiting and antithrombotic activity on the basis on the inhibition of the lipoxygenase reaction of the arachidonic acid cascade follows in a molecular/pharmacological test system. […] The lipoxygenase from rabbit reticulocytes is obtained in electrophoretically and immunologically pure form according to the techniques described in the literature (supra). The determination of the lipoxygenase activity follows at 25° C. through the polorographic measurement of oxygen consumption by means of a Clark-electrode in the following system: 0.1M potassiumphosphate, pH 7.4, with 0.2 percent sodium cholate and 0.53 mM linoleic acid. The enzyme concentration in the measurement preparation came to 25 nM. The compounds to be tested are dissolved in methylglycol (freshly distilled in a vacuum) and pre-incubated for 15 minutes at the measuring temperature in the absence of sodium cholate and linoleic acid. […] The enzyme reaction is started by the addition of sodium cholate and linoleic acid.
# guinea pig lung strips [2] = experiment: Activity on the basal tones of guinea pig lung strips; details: Cavia porcellus, basal tone, cumulative dose-activity curve
# Source text: (§1) The testing of the compounds for antiasthmatic activity follows on isolated lung strips and isolated tracheal rings from guinea pigs according to measuring methods known from the literature (supra) in modified form. The measurements follow in thermostatically controlled organ bath, isotonically using a contraction measuring arrangement with lift receiver, measuring coil, measuring amplifier (inductive measurement with the aid of a high frequency resonant circuit). The gasification follows with air. The suspension solution has the following composition: 39.46 g NaCl, 2.2 g KCl, 6.07 g Tris, 1.0 g CaCl2, 9.9 g glucose, 1.0 ml saturated MgCl2 -solution, 43 ml 1N HCl; pH 7.4.
# (c) Activity on the basal tones of guinea pig lung strips.
# Increasing concentrations of the active substance are added to the suspension medium. There occurs a dilatation, which is cumulatively measured. From the Dose-Activity-curves are provided the following parameters: […]
# guinea pig lung strips [3] = experiment: Arachidonic acid-induced spasm of isolated guinea pig lung strips; details: active substance 100 μM
# Source text: They display in animal experimental tests on isolated lung strips from guinea pigs a pronounced antiasthmatic effect. The testing of the mentioned pharmacological characteristics follows according to the principles of measuring techniques known from the literature, which come into use in modified form (G. M. Drazen et al. G. Clin. Invest. 63 1 (1979); M. W. Schneider and G. M. Drazen Amer. Rev. Resp. Dis. 121 835 (1980); S. S. Yen and W. Kreutner, Agents Actions 10 274 (1980); S. S. Yen Prostaglandins 22, 183 (1981)).
# The compounds of Formula I effect a significant restraint on arachidonic acid-induced bronchial constriction (1.5.10^-5 M arachidonic acid) in the guinea pig lung preparations (see, Example 6). Also with the addition of a cyclooxygenase inhibitor to the measuring system this effect was unaltered, and to some extent stronger, detectably. These experimental results permit without a doubt the conclusion that the compounds of Formula I involve inhibitors of the lipoxygerase pathway of arachidonic utilization, and the above described pharmacological effect is grounded upon this mechanism of activity.
# as §1
# (a) Activity on spasm of the guinea pig lung strips, induced by exogenous arachidonic acid.
# The spasm is triggered by rising concentrations of arachidonic acid (concentrated solution in ethanol, stored in N2 -atmosphere) and is cumulatively measured. […] The active substance caused a highly significant displacement to the right of the Dose-Activity curves for arachidonic acid, visible by a clear elevation of the ED50 - and ED84 -values. The effect can be described through the following activity index: [formula] In an analogous manner, the index i84 is determined from the measured data.
# thrombocyte aggregation = experiment: Arachidonic acid-induced thrombocyte aggregation in thrombocyte-rich plasma; format: cell-based, humans; details: Homo sapiens; 0.8 mM arachidonic acid; concentration giving total restraint of aggregation
# Source text: Since with the new medicines the restraints of lipoxygenase has been identified as a molecular type of attack, also their influence on the thrombocyte-aggregation has been tested. The essential role of the lipoxygenase pathway for irreversibility of the thrombocyte aggregation is now known. (C. E. Dutilh et al. Prostaglandins and Medicine 6, 111 (1981)). The key role is attributed to the irreversibility of the thrombocyte aggregation in the pathogenesis of thrombotic illnesses. […] In the experiments, the thrombocyte aggregation was triggered either by means of arachidonic acid or by means of platelet activation factor (PAF-Acether).
# The testing of the compounds for antithrombotic and thrombolytic activity follows in authentic cell systems of humans in vitro. Thrombocyte-rich plasma from the blood of healthy donors is obtained by centrifugation at 1,000×g. The measurement of the thrombocyte aggregation follows by means of an aggregometer based upon diffuse light scattering or light absorption of the produced cell aggregate. The thrombocyte-rich plasma is pre-incubated at 37° C. for 3 minutes with the active substance or substances; thereafter the thrombocyte aggregation is triggered through the addition of either 0.8 mM arachidonic acid or 1 μM platelet activation factor (PAF-acether). The preparations are then stirred with a velocity of 800 rpm. Indeed according to the employed active substance concentration there occurs either a strong delay or a complete inhibition of the thrombocyte aggregation.
# guinea pig trachia = experiment: Carbachol-induced spasm of guinea pig trachea; details: Cavia porcellus; spasm triggered by 3.9 μM carbachol; read-out: active substance concentration at which strong to very strong dilatation was clearly determinable
# Source text: as §1
# (b) Activity on the carbachol-induced spasm of guinea pig trachia
# The spasms are triggered by 3.9 μM carbachol.
# [4] = 25° C., pH 7.4, 0.53 mM linoleic acid, 15 min pre-incubation, read-out: I50
# [5] = 25° C., pH 7.4, 0.53 mM linoleic acid, 15 min pre-incubation
"IC50 [1, 4] [µM]","IC84 [1, 5] [µM]",SMILES,other results
3.5,6.4,"O=C(CCCCOc1ccc2ccccc2c1)NO [5(2'-naphthoxy)valerylhydroxamic acid, 5(2'-naphthoxy)-valerylhydroxamic acid]",
20,,"NC1=NN(c2cccc(C(F)(F)F)c2)CC1 [BW 755 C, 3-amino-N-(3-trifluoromethylphenyl)-pyrazoline-(2), reference compound]",
4.6,16,"O=[N+]([O-])c1ccc(O)c(O)c1 [4-nitrocatechol, reference compound]",IC100 (thrombocyte aggregation): 60 µM
1.3,,"CCCCCCCCC#CCC#CCC#CCCCC(=O)O [5,8,11-eicosatriicacid, reference compound]",
4,7.5,"O=C(CCCOc1ccc2ccccc2c1)NO [4(2'-naphthoxy)-n-butyl-hydroxamic acid, 4(2'-naphthoxy)-butylhydroxamic acid]",
2.1,4.6,O=C(CCCCCCCOc1ccc2ccccc2c1)NO [8(2'-naphthoxy)-octylhydroxamic acid],

# Further lines, the compound ahead of its results:
SMILES,"IC50 [1, 4] [µM]","IC84 [1, 5] [µM]",other results
CC(Oc1ccc2ccccc2c1)C(=O)NO (centres unmarked) [2(2'-naphthoxy)-2-methyl-acethydroxamic acid],40,120,
O=C(NO)c1ccc2ccccc2c1O [1-hydroxy-2-naphthylhydroxamic acid],47,500,
CCCC(Oc1ccc2ccccc2c1)C(=O)NO (centres unmarked) [2(2'-naphthoxy)-2-n-propyl-acethydroxamic acid],24,,
"COc1ccc(O)c(C(C)(C)C)c1 [3-tert.-butyl-4-hydroxy-anisol, reference compound]",,,IC50 [1]: 160 µM; EC50 (guinea pig lung strips [2]; read-out: ED50 (dilatation)): 61 µM; EC84 (guinea pig lung strips [2]; read-out: ED84 (dilatation)): 130 µM; activity index i50 (displacement of arachidonic acid ED50) (guinea pig lung strips [3]): 4.6; activity index i84 (displacement of arachidonic acid ED84) (guinea pig lung strips [3]): 3.6
CCC(Oc1cccc2ccccc12)C(=O)NO (centres unmarked) [2(1'-naphthoxy)-2-ethyl-acethydroxamic acid],42,130,
CC(C)C(Oc1ccc2ccccc2c1)C(=O)NO (centres unmarked) [2(2'-naphthoxy)-2-i-propyl-acethydroxamic acid],27,,
CCCCCCCCC(Oc1ccc2ccccc2c1)C(=O)NO (centres unmarked) [2(2'-naphthoxy)-2-n-octyl-acethydroxamic acid],2.3,7,
CCC(Oc1ccc2ccccc2c1)C(=O)NO (centres unmarked) [2(2'-naphthoxy)-2-ethyl-acethydroxamic acid],32,,
CCCCC(Oc1ccc2ccccc2c1)C(=O)NO (centres unmarked) [2(2'-naphthoxy)-2-n-butyl-acethydroxamic acid],19,,
"CC(Cc1ccc(O)c(O)c1)C(C)Cc1ccc(O)c(O)c1 (centres unmarked) [nordihydroguaiaretic acid, reference compound]",,,minimal effective concentration (guinea pig trachia): 50 µM
O=C(COc1cccc2ccccc12)NO [2(1'-naphthoxy)-acethydroxamic acid],25,60,
CCCCCCCCCC(Oc1ccc2ccccc2c1)C(=O)NO (centres unmarked) [2(2'-naphthoxy)-2-n-nonyl-acethydroxamic acid],1.5,4.8,
"O=C(CCOc1ccc2ccccc2c1)NO [3(2'-naphthoxy)-n-propylhydroxamic acid, 3(2'-naphthoxy)-propylhydroxamic acid]",7,15,
